{"source": "patent US20150328220A1", "about": "“METHODS OF TREATING CHRONIC KIDNEY DISEASE CHARACTERIZED BY MACROALBUMINURIA” (Concert Pharmaceuticals, Inc., priority 2014, published 2015)", "assay_type_in_all_cases": "in vivo, human", "key": {"[1]": {"tested_on": "patients with type 2 diabetic kidney disease and macroalbuminuria", "assay": "Phase 2 placebo-controlled clinical trial, 48 weeks: serum creatinine levels", "conditions": "for patients who experienced a 50% or greater increase in serum creatinine levels: after 48 weeks", "procedure": "(§1) A Phase 2 placebo-controlled clinical trial of Compound (V) was conducted in patients with type 2 diabetic kidney disease and macroalbuminuria. All patients enrolled in the clinical trial were concurrently treated with angiotensin modulators. The purpose of the trial was to compare Compound (V) to placebo in terms of safety and efficacy with respect to measures of renal function such as UACR, serum creatinine levels, and estimated glomerular filtration rate.\n(§2) The clinical trial consists of three parts, two of which were completed and a third part that is on-going. Part 1 was a double-blind, parallel, two-arm, placebo-controlled study evaluating the safety and efficacy of 600 mg of Compound (V) twice daily for 24 weeks. 182 patients were enrolled in this first part of the trial and 151 patients completed Part 1. Part 2 was a blinded 24-week extension study in which all patients who completed Part 1 were eligible to continue receiving 600 mg of Compound (V) or placebo twice daily. 143 patients were enrolled in this part of the clinical trial and have completed dosing. 123 of the 143 patients that were enrolled in Part 2 of the clinical trial completed Part 2. The combined 48 weeks of data from Parts 1 and 2 of the clinical trial have been analyzed. 102 patients enrolled in Part 3 which is a 48 week open-label extension study that is on-going. All patients who completed Part 2 were eligible to receive 600 mg of Compound (V) twice daily.\nThe key criteria for patients to be included in the clinical trial were (a) eGFR from 23 to 89 mL/min/1.73 m^2, a measure of kidney function which indicates mild to moderately severe type 2 diabetic kidney disease; (b) having been on a stable angiotensin modulation regimen for a minimum of four weeks prior to initiating screening and nine weeks prior to initiating dosing; (c) blood pressure less than or equal to 145/90 mm Hg; (d) glycosylated hemoglobin A1c (HbA1c) less than or equal to 10.5%, and (e) UACR greater than or equal to 200 mg/g in male patients and 300 mg/g in female patients, ratios of albumin to creatinine that are indicative of substantial kidney damage in men and women, but not more than 5,000 mg/g, a ratio indicative of severe kidney disease."}, "urinary fibronectin": {"tested_on": "urinary fibronectin", "assay": "Phase 2 placebo-controlled clinical trial, 48 weeks: urinary fibronectin (fibrotic biomarker)", "procedure": "as §1\nas §2, with “All patients who completed Part 2 were eligible to receive 600 mg of Compound (V) twice daily.” left out"}, "plasma collagen IV": {"tested_on": "plasma collagen IV", "assay": "Phase 2 placebo-controlled clinical trial, 48 weeks: plasma collagen IV (fibrotic biomarker)", "conditions": "week 48 (FIG. 3)", "procedure": "as §1\nas §2, with “All patients who completed Part 2 were eligible to receive 600 mg of Compound (V) twice daily.” left out"}}}
{"smiles": "[2H]C([2H])([2H])[C@H](O)C([2H])([2H])CCCn1c(=O)c2c(ncn2C)n(C)c1=O", "note": "[Compound (V)]", "values": [{"measurement": "increase in mean serum creatinine level over the 48 weeks of treatment", "setting": "[1]; 600 mg twice daily, 48 weeks, 65 patients, overall population, preliminary analysis", "value": 0.13, "unit": "mg/dL"}, {"measurement": "patients who experienced a 50% or greater increase in serum creatinine levels", "setting": "[1]; overall population, one out of 65 patients, p=0.026 vs placebo, post-hoc", "value": 1.5, "unit": "%"}, {"measurement": "patients who experienced a 50% or greater increase in serum creatinine levels", "setting": "[1]; subpopulation having UACR greater than 850 mg/g, one out of 31 patients, p<0.0409 vs placebo", "value": 3.1, "unit": "%"}, {"measurement": "improvement in serum creatinine increase as compared to placebo", "setting": "[1]; at 48 weeks, 600 mg twice daily, p=0.057 two-tailed", "value": 38, "unit": "%"}, {"measurement": "less urine fibronectin versus placebo", "setting": "urinary fibronectin; week 48, overall population (FIG. 1)", "value": 59, "unit": "%"}, {"measurement": "decrease in urine fibronectin relative to placebo", "setting": "urinary fibronectin; week 48, subpopulation having UACR greater than 850 mg/g, p<0.01 (FIG. 2)", "value": 73, "unit": "%"}, {"measurement": "less plasma collagen IV versus placebo", "setting": "plasma collagen IV", "value": 18, "unit": "%"}]}
